Measurements as given in US20120328692A1, “POTENT D-PEPTIDE ANTAGONISTS OF MDM2 AND MDMX FOR ANTICANCER THERAPY” (UNIVERSITY OF MARYLAND, BALTIMORE, priority 2011, published 2012).
pIC50, pKd: −log10 of the molar value.

Legend:
[1] = test system: human glioma cell line U87 (wild type p53); test: MTS cell viability assay, U87 cells; format: cell-based; conditions: three-day treatment, read-out: IC50 of growth inhibition
Text: The inhibition curves are averages of 3 independent measurements.

[2] = target: T1, ^synMDMX (^24-108MDMX, p53-binding domain of MDMX) (Homo sapiens, UniProt O15151); test: competition SPR binding to synMDMX
T1 construct: MDMX (^24-108MDMX or syn MDMX); made in house; host or cells: chemical synthesis (inferred from the prefix 'syn'; no expression host named)
T1 sequence (O15151 24-108): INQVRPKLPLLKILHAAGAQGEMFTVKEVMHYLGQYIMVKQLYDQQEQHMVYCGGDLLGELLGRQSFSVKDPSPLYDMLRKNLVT

normal cells = conditions: cited from earlier work

COc1ccc(C2=N[C@@H](c3ccc(Cl)cc3)[C@@H](c3ccc(Cl)cc3)N2C(=O)N2CCNC(=O)C2)c(OC(C)C)c1 [Nutlin-3]
pIC50 [1]: 5.42

CC(C)C[C@@H](NC(=O)[C@H]1CCCN1C(=O)[C@@H](Cc1c[nH]c2ccccc12)NC(=O)[C@@H](Cc1c[nH]c2ccccc12)NC(=O)[C@H](N)CC(=O)O)C(=O)N[C@H](C)C(=O)N[C@H](Cc1ccccc1)C(=O)N[C@H](CCC(=O)O)C(=O)N[C@H](C)C(=O)N[C@H](CC(C)C)C(=O)N[C@H](CC(C)C)C(=O)N[C@H](CCCNC(=N)N)C(=O)O [^DPMI-γ]
pKd [2]: 5.31

MI-219
activation of the p53 pathway (accumulation of p53, increased MDM2 and p21) (normal cells): transient activation of the p53 pathway
expression of PUMA and apoptosis (normal cells): fails to induce the expression of PUMA and apoptosis
